Experimental data as given in patent US11723944B2 (priority 2015, dated 2023).

Target: BoNT/A holotoxin (Clostridium botulinum, UniProt P0DPI0)
Sequence (P0DPI0 2-448 limits assumed): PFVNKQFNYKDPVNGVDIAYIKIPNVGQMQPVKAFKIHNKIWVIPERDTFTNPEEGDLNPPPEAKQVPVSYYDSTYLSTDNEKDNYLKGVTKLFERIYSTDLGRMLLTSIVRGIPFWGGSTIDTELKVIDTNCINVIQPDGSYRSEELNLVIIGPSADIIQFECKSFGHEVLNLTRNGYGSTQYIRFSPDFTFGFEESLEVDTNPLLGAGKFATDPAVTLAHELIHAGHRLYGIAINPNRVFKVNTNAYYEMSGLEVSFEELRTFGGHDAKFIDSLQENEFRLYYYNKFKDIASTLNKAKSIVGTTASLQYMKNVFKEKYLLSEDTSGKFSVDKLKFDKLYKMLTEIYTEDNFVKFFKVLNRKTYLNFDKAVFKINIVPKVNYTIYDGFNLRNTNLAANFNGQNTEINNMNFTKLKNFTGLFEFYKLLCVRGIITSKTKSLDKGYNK

Which results are given for “NH2-Dab(DNP)-R-[Lys(N3)-T-Dab-Pra]-L-Lys(DBCO-STP)-Tz4-G-Aib-L-[Pra-NYRWL-Lys(N3)] [Inh-2-STP]”?
latest time after exposure with partial rescue: ≤ 3 h; rescue from internalized BoNT (SNAP-25 cleavage): partial rescue
